Measured values as given in patent US20260022142A1, “MACROCYCLIC IMMUNOMODULATORS” (Bristol-Myers Squibb Company, priority 2022, published 2026).
Bridge positions count the residues as written; N and C are the ends. Square brackets hold non-standard residues; d marks the D form. Peptide text beside a SMILES is read from it. * marks the point of attachment. ξ: configuration not given here. Bip = N[C@@H](Cc1ccc(-c2ccccc2)cc1)C(=O)O; Phe(3-Me) = Cc1cccc(C[C@H](N)C(=O)O)c1; Cha = N[C@@H](CC1CCCCC1)C(=O)O; dCha = N[C@H](CC1CCCCC1)C(=O)O; dNle = CCCC[C@@H](N)C(=O)O; Carboxymethyl = O=C(O)C*; Orn = NCCC[C@H](N)C(=O)O; Aun = NCCCCCCCCCCC(=O)O; Dab = NCC[C@H](N)C(=O)O; Dap = NC[C@H](N)C(=O)O; AEEA = NCCOCCOCC(=O)O; ξC = NC(CS)C(=O)O

Biological target: T1, PD-1/PD-L1 interaction (PE-labeled human PD-L1-Ig binding to Jurkat cell line over-expressing human PD-1) (Homo sapiens, UniProt Q15116)
T1 construct: expressed in transfected cells; host or cells: Jurkat
T1 sequence (Q15116 25-288): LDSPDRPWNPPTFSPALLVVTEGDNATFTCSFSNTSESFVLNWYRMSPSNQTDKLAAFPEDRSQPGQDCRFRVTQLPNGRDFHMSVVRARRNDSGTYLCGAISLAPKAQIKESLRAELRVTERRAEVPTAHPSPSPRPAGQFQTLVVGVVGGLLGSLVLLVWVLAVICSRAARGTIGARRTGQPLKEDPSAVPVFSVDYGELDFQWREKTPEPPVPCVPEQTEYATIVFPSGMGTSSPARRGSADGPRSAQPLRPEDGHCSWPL
Assay: Jurkat-PD-1 Cell Binding High-Content Screening Assay (CBA)
Type: cell-based
Conditions: Jurkat cell line over-expressing human PD-1; PE-labeled PD-L1-Ig 20 nM final; read-out: Jurkat hPD1-PDL1 IC50
Summary of the method: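 Human PD-L1-Ig carrying a covalent PE label on its Ig tag serves as the probe, applied at 20 nM final to compound-treated (2 h, 37° C) Jurkat-hPD-1 cells in medium with 10% fetal calf serum. After one hour, fixation and nuclear staining precede high-content image analysis.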

IC50	SMILES
11 nM	Cc1cccc(C[C@@H]2NC(=O)[C@H](CC(=O)O)NC(=O)[C@H](Cc3ccc(OCC(=O)O)cc3)NC(=O)[C@H](CN)NC(=O)CSC[C@@H](C(=O)N[C@@H](CCN)C(=O)NCCOCCOCC(=O)NCCCCCCCCCCC(=O)O)NC(=O)[C@H](CCCNC(=N)N)NC(=O)[C@H](C(C)C)NC(=O)[C@H](CC3CCCCC3)NC(=O)[C@H](CCN)NC(=O)[C@@H](CC(C)C)NC(=O)[C@H](CCCN)NC(=O)[C@H](CCC(=O)O)NC(=O)[C@H](Cc3ccc(-c4ccccc4)cc3)NC(=O)[C@H](C(C)C)NC2=O)c1 [Compound 2662] ({CH2CO}-[Dap]Y(Carboxymethyl)D[Phe(3-Me)]V[Bip]E[Orn][dL][Dab][Cha]VRC[Dab][AEEA][Aun]-OH; thioether N-14)
22.2 nM	CC(C)C[C@H]1NC(=O)[C@H](CCCN)NC(=O)[C@H](CCC(=O)O)NC(=O)[C@H](Cc2ccc(-c3ccccc3)cc2)NC(=O)[C@H](C(C)C)NC(=O)[C@H](Cc2c[nH]c3ccccc23)NC(=O)[C@H](CC(=O)O)NC(=O)[C@H](Cc2ccc(OCC(=O)O)cc2)NC(=O)[C@H](CN)NC(=O)CSCC(C(=O)NCCOCCOCC(=O)NCCCCCCCCCCC(=O)O)NC(=O)[C@H](CCCCN)NC(=O)[C@H](C(C)C)NC(=O)[C@H](CC2CCCCC2)NC(=O)[C@H](CCN)NC1=O (stereo partly drawn) [Compound 2665] ({CH2CO}-[Dap]Y(Carboxymethyl)DWV[Bip]E[Orn][dL][Dab][Cha]VK[ξC][AEEA][Aun]-OH; thioether N-14)
18 nM	Cc1cccc(C[C@@H]2NC(=O)[C@H](CC(=O)O)NC(=O)[C@H](Cc3ccc(OCC(=O)O)cc3)NC(=O)[C@H](CN)NC(=O)CSC[C@@H](C(=O)NCCOCCOCC(=O)NCCCCCCCCCCC(=O)O)NC(=O)[C@H](CN)NC(=O)[C@H](C(C)C)NC(=O)[C@H](CC3CCCCC3)NC(=O)[C@H](CCN)NC(=O)[C@@H](CC(C)C)NC(=O)[C@H](CCCN)NC(=O)[C@H](CCC(=O)O)NC(=O)[C@H](Cc3ccc(-c4ccccc4)cc3)NC(=O)[C@H](C(C)C)NC2=O)c1 [Compound 2666] ({CH2CO}-[Dap]Y(Carboxymethyl)D[Phe(3-Me)]V[Bip]E[Orn][dL][Dab][Cha]V[Dap]C[AEEA][Aun]-OH; thioether N-14)
9.6 nM	Cc1cccc(C[C@@H]2NC(=O)[C@H](CC(=O)O)NC(=O)[C@H](Cc3ccc(OCC(=O)O)cc3)NC(=O)[C@H](CN)NC(=O)CSC[C@@H](C(=O)NCCOCCOCC(=O)NCCCCCCCCCCC(=O)O)NC(=O)[C@H](CCCN)NC(=O)[C@H](C(C)C)NC(=O)[C@H](CC3CCCCC3)NC(=O)[C@H](CCN)NC(=O)[C@@H](CC(C)C)NC(=O)[C@H](CCCN)NC(=O)[C@H](CCC(=O)O)NC(=O)[C@H](Cc3ccc(-c4ccccc4)cc3)NC(=O)[C@H](C(C)C)NC2=O)c1 [Compound 2667] ({CH2CO}-[Dap]Y(Carboxymethyl)D[Phe(3-Me)]V[Bip]E[Orn][dL][Dab][Cha]V[Orn]C[AEEA][Aun]-OH; thioether N-14)
10.8 nM	Cc1cccc(C[C@@H]2NC(=O)[C@H](CC(=O)O)NC(=O)[C@H](Cc3ccc(OCC(=O)O)cc3)NC(=O)[C@H](CN)NC(=O)CSC[C@@H](C(=O)N[C@@H](CCCCN)C(=O)NCCOCCOCC(=O)NCCCCCCCCCCC(=O)O)NC(=O)[C@H](CN)NC(=O)[C@H](C(C)C)NC(=O)[C@H](CC3CCCCC3)NC(=O)[C@H](CCN)NC(=O)[C@@H](CC(C)C)NC(=O)[C@H](CCCN)NC(=O)[C@H](CCC(=O)O)NC(=O)[C@H](Cc3ccc(-c4ccccc4)cc3)NC(=O)[C@H](C(C)C)NC2=O)c1 [Compound 2668] ({CH2CO}-[Dap]Y(Carboxymethyl)D[Phe(3-Me)]V[Bip]E[Orn][dL][Dab][Cha]V[Dap]CK[AEEA][Aun]-OH; thioether N-14)
11.5 nM	Cc1cccc(C[C@@H]2NC(=O)[C@H](CC(=O)O)NC(=O)[C@H](Cc3ccc(OCC(=O)O)cc3)NC(=O)[C@H](CN)NC(=O)CSC[C@@H](C(=O)N[C@@H](CCCCN)C(=O)NCCOCCOCC(=O)NCCCCCCCCCCC(=O)O)NC(=O)[C@H](CCCN)NC(=O)[C@H](C(C)C)NC(=O)[C@H](CC3CCCCC3)NC(=O)[C@H](CCN)NC(=O)[C@@H](CC(C)C)NC(=O)[C@H](CCCN)NC(=O)[C@H](CCC(=O)O)NC(=O)[C@H](Cc3ccc(-c4ccccc4)cc3)NC(=O)[C@H](C(C)C)NC2=O)c1 [Compound 2669] ({CH2CO}-[Dap]Y(Carboxymethyl)D[Phe(3-Me)]V[Bip]E[Orn][dL][Dab][Cha]V[Orn]CK[AEEA][Aun]-OH; thioether N-14)
10.8 nM	Cc1cccc(C[C@@H]2NC(=O)[C@H](CC(=O)O)NC(=O)[C@H](Cc3ccc(OCC(=O)O)cc3)NC(=O)[C@H](CN)NC(=O)CSC[C@@H](C(=O)N[C@@H](CCCCN)C(=O)NCCOCCOCC(=O)NCCCCCCCCCCC(=O)O)NC(=O)[C@H](CCCNC(=N)N)NC(=O)[C@H](C(C)C)NC(=O)[C@H](CC3CCCCC3)NC(=O)[C@H](CCN)NC(=O)[C@@H](CC(C)C)NC(=O)[C@H](CCCN)NC(=O)[C@H](CCC(=O)O)NC(=O)[C@H](Cc3ccc(-c4ccccc4)cc3)NC(=O)[C@H](C(C)C)NC2=O)c1 [Compound 2670] ({CH2CO}-[Dap]Y(Carboxymethyl)D[Phe(3-Me)]V[Bip]E[Orn][dL][Dab][Cha]VRCK[AEEA][Aun]-OH; thioether N-14)
14.1 nM	CC(C)C[C@H]1NC(=O)[C@H](CCCN)NC(=O)[C@H](CCC(=O)O)NC(=O)[C@H](Cc2ccc(-c3ccccc3)cc2)NC(=O)[C@H](C(C)C)NC(=O)[C@H](Cc2c[nH]c3ccccc23)NC(=O)[C@H](CC(=O)O)NC(=O)[C@H](Cc2ccc(OCC(=O)O)cc2)NC(=O)[C@H](Cc2ccc(OCC(=O)O)cc2)NC(=O)CSC[C@@H](C(=O)NCCOCCOCC(=O)N[C@@H](CCN)C(=O)NCCCCCCCCCCC(=O)O)NC(=O)[C@H](CCCNC(=N)N)NC(=O)[C@H](C(C)C)NC(=O)[C@H](CC2CCCCC2)NC(=O)[C@H](CCN)NC1=O [Compound 2671] ({CH2CO}-Y(Carboxymethyl)Y(Carboxymethyl)DWV[Bip]E[Orn][dL][Dab][Cha]VRC[AEEA][Dab][Aun]-OH; thioether N-14)
22.7 nM	CCCC[C@H]1NC(=O)[C@H](CCCN)NC(=O)[C@H](C(C)C)NC(=O)[C@H](Cc2ccc(-c3ccccc3)cc2)NC(=O)[C@H](C(C)C)NC(=O)[C@H](Cc2c[nH]c3ccccc23)NC(=O)[C@H](CC(=O)O)NC(=O)[C@H](Cc2ccc(OCC(=O)O)cc2)NC(=O)[C@H](CN)NC(=O)CSC[C@@H](C(=O)NCCOCCOCC(=O)N[C@@H](CCN)C(=O)NCCCCCCCCCCC(=O)O)NC(=O)[C@H](CCCCN)NC(=O)[C@H](C(C)C)NC(=O)[C@H](CC2CCCCC2)NC(=O)[C@H](CCN)NC1=O [Compound 2672] ({CH2CO}-[Dap]Y(Carboxymethyl)DWV[Bip]V[Orn][dNle][Dab][Cha]VKC[AEEA][Dab][Aun]-OH; thioether N-14)
22.5 nM	CC(C)[C@@H]1NC(=O)[C@H](CC2CCCCC2)NC(=O)[C@H](CCN)NC(=O)[C@@H](CC2CCCCC2)NC(=O)[C@H](CCCN)NC(=O)[C@H](C(C)C)NC(=O)[C@H](Cc2ccc(-c3ccccc3)cc2)NC(=O)[C@H](C(C)C)NC(=O)[C@H](Cc2c[nH]c3ccccc23)NC(=O)[C@H](CC(=O)O)NC(=O)[C@H](Cc2ccc(OCC(=O)O)cc2)NC(=O)[C@H](CN)NC(=O)CSC[C@@H](C(=O)NCCOCCOCC(=O)N[C@@H](CCN)C(=O)NCCCCCCCCCCC(=O)O)NC(=O)[C@H](CCCCN)NC1=O [Compound 2673] ({CH2CO}-[Dap]Y(Carboxymethyl)DWV[Bip]V[Orn][dCha][Dab][Cha]VKC[AEEA][Dab][Aun]-OH; thioether N-14)
